In patent publication US20180002400A1, “SHORT PEPTIDE-BASED THERAPEUTIC AGENT AND MEDICINAL COMPOSITION INCLUDING THE SAME FOR INHIBITING ACTIVITIES OF CANCER CELLS” (NATIONAL CHENG KUNG UNIVERSITY, priority 2015, published 2018):

Columns and labels:
breast cancer MB231 cell [1] = experiment: Sphere formation (cancer stemness) induced by euPTX3; format: cell-based, human; conditions: short peptide 10 μg/mL or 225 nM + euPTX3 2.5 μg/mL, 2 weeks, FIG. 1C
Experimental: (§1) Each well of the multi-well plate with ultra-low attachment surface (Corning Inc.) was inoculated with the cell density 5×10^3 cells/well of the breast cancer MB231 cell, the lung cancer A549 cell and the nasopharyngeal cancer HONE1 cell, all of which were co-cultured with the short peptides R137, GI40, KT44 (10 μg/mL or 225 nM of the short peptide) and the polypeptide euPTX3 (2.5 μg/mL) of Example 1 in serum-free medium DMEM/F12 (Gibco) [containing B27 (Invitrogen), 20 ng/mL of epidermal growth factor (EGF; Abcam) and 10 ng/mL of basic Fibroblast Growth Factor (bFGF; Peprotech)]. After 2 weeks of cultivation, the cell spheres were observed by optical microscopy.

lung cancer A549 cell [2] = experiment: as above; format: cell-based, human; conditions: short peptide 10 μg/mL or 225 nM + euPTX3 2.5 μg/mL, 2 weeks, FIG. 2A
Experimental: as §1

[3] = test system: nasopharyngeal cancer HONE1 cell; experiment: as above; format: cell-based, human; conditions: short peptide 10 μg/mL or 225 nM + euPTX3 2.5 μg/mL, 2 weeks, FIG. 3A
Experimental: as §1

[4] = test system: drug-resistant MB231R breast cancer; experiment: Xenograft tumor model, CDDP-resistant MB231R cells in NOD-SCID mice; format: in vivo, mouse; conditions: for drug resistance generated by the tumor: 50 μg short peptide intratumorally twice weekly combined with CDDP 5 mg/kg i.p. once weekly; for drug resistance generated by the tumor / tumor growth (tumor size): FIG. 4D; for tumor growth (tumor size): 50 μg short peptide intratumorally twice weekly; for tumor metastasis and growth (images of tumors of various organs, epi-fluorescence radiance efficiency): IVIS imaging; for tumor metastasis (number of metastatic nodules per lung) / tumor growth (tumor weight per lung): sacrificed after ten weeks; for tumor metastasis (number of metastatic nodules per lung): FIG. 4E left panel; for tumor growth (tumor weight per lung): FIG. 4E right panel
Experimental: Besides, 1×10^6 mCherry fluorescent protein-labeled CDDP-resistant human MDA-MB-231 cells (MB231R; ATCC CRL-2539) were inoculated subcutaneously to the rear side of the back of six to eight-week-old female NOD-SCID immunodeficiency mice (purchased from Laboratory Animal Center of National Cheng Kung University). After 1 week of inoculation, the mice were intraperitoneally injected with 5 mg/kg of CDDP [dissolved in 1% (w/v) DMSO] or only 1% (w/v) of DMSO once weekly, and intratumorally uninjected or injected with 50 μg of the short peptides RI37, GI40 and KT44 of Example 1 twice weekly. The mice were sacrificed after ten weeks of inoculation. Spleen, kidneys, lungs and liver were obtained, tumor weight of those organs were measured according to 3 replications per group, and the metastatic activity and the number of metastatic nodules per organ were confirmed by IVIS Spectrum Imaging System. The tumor size was measured by a commercial external caliper, and the tumor volume (V) was calculated by the following formula (I). Each condition of the experiment was repeated at least thrice.

lung cancer A549 cell [5] = experiment: Cancer cell invasion (matrigel-coated insert) induced by euPTX3; format: cell-based, human; conditions: A549; short peptide 10 μg/mL + euPTX3 2.5 μg/mL; FIG. 2C right panel
Experimental: (§2) The cell density 5×10^4 cells/well of the breast cancer MB231 cell, the lung cancer A549 cell and the nasopharyngeal cancer HONE1 cell were seeded into each upper insert of 24-well plate (containing 8-μm pore insert per well; BD Biosciences), the upper insert and the lower well were separated by the polyethelene terephthalate membrane coated with matrigel (purchased from BD Bioscience), and cultured for 3 hours.
(§3) Next, the medium in each upper insert was replaced by serum-free medium, and the medium in each lower well was added with the short peptides RI37, GI40, KT44 and the polypeptide euPTX3 and pPTX3/C of Example 1. The cells inside each upper insert were wiped with cotton swabs and removed after 16 hours of cultivation. Remaining cells that had migrated to the bottom of the insert membrane were stained by 4′, 6-diamidino-2-phenylindole (DAPI; Invitrogen) and calculated under fluorescence microscopy with 200-fold magnification.

[6] = test system: nasopharyngeal cancer HONE1 cell; experiment: as above; format: cell-based, human; conditions: HONE1; short peptide 10 μg/mL + euPTX3 2.5 μg/mL; FIG. 3C right panel
Experimental: as §2, §3

[7] = test system: drug-resistant 4T1R breast cancer; experiment: Allograft tumor model, CDDP-resistant 4T1R cells in BALB/c mice; format: in vivo, mouse; conditions: 4T1R in BALB/c mice; for drug resistance generated by the tumor: 50 μg short peptide intratumorally twice weekly combined with CDDP 5 mg/kg i.p. once weekly; for drug resistance generated by the tumor / tumor growth (tumor size): FIG. 4A; for tumor growth (tumor size): 50 μg short peptide intratumorally twice weekly; for tumor metastasis and growth (images of tumors of various organs, epi-fluorescence radiance efficiency): IVIS imaging; for tumor metastasis (number of metastatic nodules per lung) / tumor growth (tumor weight per lung): sacrificed after six weeks; for tumor metastasis (number of metastatic nodules per lung): FIG. 4B left panel; for tumor growth (tumor weight per lung): FIG. 4B right panel
Experimental: In this Example, 1×10^6 mCherry fluorescent protein-labeled CDDP-resistant mouse 4T1 cells (4T1R; ATCC CRL-2539) were inoculated subcutaneously to the rear side of the back of six to eight-week-old female BALB/c mice (purchased from Laboratory Animal Center of National Cheng Kung University). After 1 week of inoculation, the mice were intraperitoneally injected with 5 mg/kg of CDDP [dissolved in 1% (w/v) DMSO] or only 1% (w/v) of DMSO once weekly, and intratumorally uninjected or injected with 50 μg of the short peptides RI37, GI40 and KT44 of Example 1 twice weekly. The mice were sacrificed after six weeks of inoculation. Spleen, kidneys, lungs and liver were obtained, tumor weight of those organs were measured according to 6 replications per group, and the metastatic activity and the number of metastatic nodules per organ were confirmed by IVIS Spectrum Imaging System 200 (Caliper). The tumor size was measured by a commercial external caliper, and the tumor volume (V) was calculated by the following formula (I): […]
In the formula (I), w was referred to tumor width, l was referred to tumor length. Each condition of the experiment was repeated at least thrice.

breast cancer MB231 cell [8] = experiment: MTT cell viability (cell toxicity) of cancer cells co-cultured with short peptides; format: cell-based, human; conditions: MB231 co-cultured with increasing amount of short peptide for 24 hours or 48 hours; FIG. 1B
Experimental: After the human breast cancer MB231 cell of Example 2 was co-cultured with the short peptides RI37, GI40 and KT44 of Example 1 for 24 hours or 48 hours, the cell toxicity was analyzed by using MTT [3-(4,5-dimethylthiazol-2-yl)-2,5-[…] tetrazolium bomide] (Sigma). The transparent and colorless tetrazolium salt of MTT was degraded by mitochondrial dehydrogenase in live cells and converted to blue formazan crystals. Based on the cell viability of the cell in the absence of the short peptides of Example 1 as 100%, the influence of the cancer cell proliferation could be determined by using the short peptides.

Row | Substance | number of spheres induced by the polypeptide euPTX3 (breast cancer MB231 cell [1]) | number of spheres induced by the polypeptide euPTX3 (lung cancer A549 cell [2]) | number of spheres induced by the polypeptide euPTX3 [3] | drug resistance generated by the tumor [4] | tumor growth (tumor size) [4] | tumor metastasis and growth (images of tumors of various organs, epi-fluorescence radiance efficiency) ([4]; FIG. 4F) | tumor metastasis (number of metastatic nodules per lung) [4] | tumor growth (tumor weight per lung) [4] | invasive cell numbers induced by the polypeptide euPTX3 (lung cancer A549 cell [5]) | invasive cell numbers induced by the polypeptide euPTX3 [6] | drug resistance generated by the tumor [7] | tumor growth (tumor size) [7] | tumor metastasis and growth (images of tumors of various organs, epi-fluorescence radiance efficiency) ([7]; FIG. 4C) | tumor metastasis (number of metastatic nodules per lung) [7] | tumor growth (tumor weight per lung) [7] | cell viability (breast cancer MB231 cell [8]) | metastatic nodules in organs (imaging) ([4]; FIG. 4F) | metastatic nodules in organs (imaging) ([7]; FIG. 4C)
1 | RI37: artificially synthetic short peptide having the amino acid sequence listed as SEQ ID NO:1, designed from human PTX3 (NP_002843.2) (RPMRLESFSACIWVKATDVLNKTILFSYGTKRNPYEI; The 200th amino acid to 236th amino acid of Human sapiens PTX3 (RI37)) | could effectively inhibit the number of spheres | could effectively inhibit the number of spheres | could effectively inhibit the number of spheres | reduce the drug resistance | could inhibit tumor growth | could inhibit tumor metastasis and growth | could inhibit tumor metastasis | could inhibit tumor metastasis and growth | could effectively inhibit the invasive cell numbers | could effectively inhibit the invasive cell numbers | reduce the drug resistance | could inhibit tumor growth | could inhibit tumor metastasis and growth | could inhibit tumor metastasis | could inhibit tumor metastasis and growth | no significant influence on the cell viability |  | 
2 | GI40: artificially synthetic short peptide having the amino acid sequence listed as SEQ ID NO:2, designed from human PTX3 (NP_002843.2) (GGGFDETLAFSGRLTGFNIWDSVLSNEEIRETGGAESCHI; The 320th amino acid to 359th amino acid of Human sapiens PTX3 (GI40)) | could effectively inhibit the number of spheres | could effectively inhibit the number of spheres | could effectively inhibit the number of spheres | reduce the drug resistance | could inhibit tumor growth | could inhibit tumor metastasis and growth | could inhibit tumor metastasis | could inhibit tumor metastasis and growth | could effectively inhibit the invasive cell numbers | could effectively inhibit the invasive cell numbers | reduce the drug resistance | could inhibit tumor growth | could inhibit tumor metastasis and growth | could inhibit tumor metastasis | could inhibit tumor metastasis and growth | no significant influence on the cell viability |  | 
3 | KT44: artificially synthetic peptide having the amino acid sequence listed as SEQ ID NO:3 (KLVAEAMVSLGRWTHLCGTWNSEEGLTSLWVNGELAATTVEMAT; The 255th amino acid to 298th amino acid of Human sapiens PTX3 (KT44)) | could not inhibit the number of spheres | could not inhibit the number of spheres | could not inhibit the number of spheres |  | could not significantly inhibit the tumor growth | could not significantly inhibit tumor metastasis and growth | could not significantly inhibit tumor metastasis | could not significantly inhibit tumor metastasis and growth | could not inhibit the invasive cell numbers | could not inhibit the invasive cell numbers |  | could not significantly inhibit the tumor growth | could not significantly inhibit tumor metastasis and growth | could not significantly inhibit tumor metastasis | could not significantly inhibit tumor metastasis and growth | no significant influence on the cell viability | metastatic nodules was found in lungs | metastatic nodules was found in lungs
